The record followed here is patent US20080026362A1, “Three-dimensional culture containing human articular chondrocytes with induced terminal differentiation changes, and preparation process and uses of the same” (Kaohsiung Medical University, priority 2006, published 2008).

Holding throughout (type): cell-based
The test system of assay [1] is human articular chondrocytes. In words: TUNEL assay, apoptotic rate of chondrocytes. Particulars: Day 14 after 48 hr 15 μg/mL Aza-C; NHAC-kn; p<0.01. How it is done:
(§1) The cultivated alginate beads as described above were treated with 15 μg/mL of 5-azacytidine (Sigma, St Louis, Mo.) for 48 hours. Thereafter, they were maintained in media without Aza-C for another 2 weeks. Cells were harvested on Day 3, 7 and 14 after Aza-C treatment, respectively. The control cultures were cultivated and harvested under the same conditions except that the treatment of Aza-C was omitted.
(§2) Human articular chondrocytes were released from the alginate beads by dissolving the beads in a 0.9% NaCl solution containing 0.05M sodium citrate and 0.03M sodium EDTA at pH 7.4. Cells for each experiment were collected by low-speed centrifugation at 1,000 rpm for 5 min.
(§3) The NHAC-kn cultures were used in the following experiments except the quantitative real-time polymerase chain reaction (quantitative real-time PCR). The KMU-AC cultures were used to quantify mRNA expression by quantitative real-time PCR, which was performed to further confirm the effect of Aza-C on gene expression of human articular chondrocytes.
Fragmented DNA of an apoptotic cell was TUNEL stained using an In Situ Cell Death Detection Kit, TMR red (Roche, Germany). […] Slides were observed on a fluorescence microscope with an excitation wavelengthof 580 nm for rhodamine and 365 nm for DAPI. […] Stained cells were counted in 5 microscopic fields for each slide. […]

For assay [2], the system named is collagen type II gene. In words: RT-PCR, mRNA expression of collagen type II in alginate-bead human articular chondrocytes (NHAC-kn). The settings on record: p<0.01. How it is done:
(§4) The alginate beads were prepared with reference to C. Sanchez et al. (2002), J. Rheumatol, 29:772-82. Briefly, the above-described human articular chondrocyte cultures were suspended in a 1.2% alginate solution in 0.9% NaCl, so as to form a cell suspension at a density of 1×10^6 cells/mL. The cell suspension was then slowly dropped into a 102 mM CaCl2 solution through a yellow pipette tip, to result in the formation of alginate beads entrapping the human articular chondrocytes. The thus-formed alginate beads were allowed to polymerize for further 10 minutes in the CaCl2 solution at room temperature.
(§5) After washing with saline solution, 15 alginate beads were cultivated in 5 ml of culture medium per well in a 6-well plate. […]
as §3
(§6) On Day 3, 7 and 14 after a 48 hr Aza-C treatment, expressions of the mRNA of type II and type X collagens and alkaline phosphatase (ALP) of Aza-C-treated and non-treated cells (control) were measured by RT-PCR. […]

Assay [3] has as its system collagen type X gene. In words: Quantitative real-time PCR, mRNA expression of collagen type X in human articular chondrocytes (KMU-AC). The settings on record: normalized to GAPDH, control Day 3 = 100%, mean ± S.E.M. How it is done:
as §4, with “temperature. […]” for “temperature.”
as §3
(§7) Quantitative real-time PCR was also performed to further confirm the finding from RT-PCR. On Day 3, 7 and 14 after a 48 hr Aza-C treatment, the mRNA expressions of type II and type X collagens and ALP of Aza-C treated and control cells were measured. […]
The thus-obtained PCR products (amplicons) were detected by the fluorescence of SYBR Green, the double stranded DNA binding dye (T. B. Morrison et al. (1998), Biotechniques, 24:954-958, 960, 962). […]

The test system of assay [4] is collagen type II gene. In words: Quantitative real-time PCR, mRNA expression of collagen type II in human articular chondrocytes (KMU-AC). The settings on record: normalized to GAPDH, control Day 3 = 100%, mean ± S.E.M. The procedure: as §4
(§8) After washing with saline solution, 15 alginate beads were cultivated in 5 ml of culture medium per well in a 6-well plate. Culture medium was the Chondrocyte basal medium (Bulletkit, Clonic®; BioWhittaker, Walkersville, Md.) with a supplement of the Chondrocyte growth medium, containing R3-IGF1, bFGF, transferrin, insulin, fetal bovine serum and gentamicin/amphotericin-B (SingleQuots, Clonic®; BioWhittaker, Walkersville, Md.). […]
as §3, §7
(§9) The quantitative real-time PCR was performed in an ABI Prism 7900 HT Sequence Detection System (Applied Biosystems, Foster City, Calif.) using the SYBR Green PCR Master Mix Reagent containing the Amplitag Gold DNA polymerase, dNTP mixed with dUTP, SYBR Green 1, passive reference and reaction buffer (Applied Biosystems, Foster City, Calif.). […]

Assay [5] relates to human articular chondrocytes. In words: Flow cytometry, cell size of articular chondrocytes. Particulars: Day 14 after 48 hr 15 μg/mL Aza-C, NHAC-kn. How it is done:
as §1, §2, §3
The cell size of articular chondrocytes from the control and Aza-C treated cultures was analysed by flow cytometry on Day 14 after the Aza-C treatment. […] Cells (1×10^6) were then suspended in phosphate buffered saline and analysed immediately on a laser flow cytometer (EPICS Elite; Coulter, Hialeah, Fla.). […]
Background: A flow cytometer gives signals particle by particle.

Assay [6] has as its system collagen type X gene. In words: RT-PCR, mRNA expression of collagen type X in alginate-bead human articular chondrocytes (NHAC-kn). The settings on record: p<0.01. How it is done:
as §4
After washing with saline solution, 15 alginate beads were cultivated in 5 ml of culture medium per well in a 6-well plate. Culture medium was the Chondrocyte basal medium (Bulletkit, Clonic®; BioWhittaker, Walkersville, Md.) with a supplement of the Chondrocyte growth medium, containing R3-IGF1, bFGF, transferrin, insulin, fetal bovine serum and gentamicin/amphotericin-B (SingleQuots, Clonic®; BioWhittaker, Walkersville, Md.). The alginate beads were cultured for 7 days at 37° C. in a humidified incubator with 5% CO2 and the culture medium was changed every 3 days. […]
as §3, §6
The thus-obtained PCR products (amplicons) were resolved by electrophoresis on a 1.4% agarose gel and visualised by ethidium bromide staining. The optical densities of the resolved bands were semi-quantified using a Bioimaging System (UVP Inc., Upland, Calif.). […] The optical intensity ratios of the PCR products to the 18S rRNA gene were calculated for comparison.

Assay [7] relates to alkaline phosphatase (ALP) gene. Kind of assay: RT-PCR, mRNA expression of alkaline phosphatase in alginate-bead human articular chondrocytes (NHAC-kn). Particulars: p<0.01. How it is done:
as §4, §5, §3, §6

For another assay, the system named is ALP gene. In words: Quantitative real-time PCR, mRNA expression of ALP in human articular chondrocytes (KMU-AC). Particulars: normalized to GAPDH, control Day 3 = 100%, mean ± S.E.M. The procedure: as §4, §8, §3, §7, §9
The mark [8] stands for this setting: Day 7 after 48 hr treatment with 15 μg/ml Aza-C.
The mark [9] stands for this setting: Day 14 after 48 hr treatment with 15 μg/ml Aza-C.
Setting [10] is: Day 3 after 48 hr 15 μg/mL Aza-C.
Setting [11] is: Day 14 after 48 hr 15 μg/mL Aza-C.
Where [12] appears, read: Day 7 after 48 hr 15 μg/mL Aza-C.

Regarding `Nc1ncn([C@@H]2O[C@H](CO)[C@@H](O)[C@H]2O)c(=O)n1` [Aza-C, 5-azacytidine], the “apoptotic rate of articular chondrocytes (TUNEL stained / DAPI stained cells) vs control cultures” value in assay [1] is “significantly increased”. Also, the “mRNA expression of collagen type II gene (RT-PCR, normalized to 18S rRNA) vs control group” value in the assay with collagen type II gene [2] (setting [8]) and in the assay with collagen type II gene [2] (setting [9]) was “significantly decreased” each time. For the same molecule, the “Percentage change of mRNA expression of collagen type X by quantitative real-time PCR” value with collagen type X gene [3] (setting [10]) is on record as 398.0 ± 26.3 %; with collagen type X gene [3] (setting [11]), 335.0 ± 1.4 %. Also, the “Percentage change of mRNA expression of collagen type II by quantitative real-time PCR” value is 7.3 ± 1.2 % with collagen type II gene [4] (setting [10]), 1.0 ± 0.4 % in the assay with collagen type II gene [4] (setting [12]) and 3.0 ± 0.9 % with collagen type II gene [4] (setting [11]). For the same molecule, the “increase of cell size as compared to the control cultures” value in assay [5] is 26%. Further, the “cell size of articular chondrocytes (relative intensity in forward scatter)” value in assay [5] (mean ± SEM, control cultures 404.41±1.45, p<0.01) was found to be 509.20±1.93. The “mRNA expression of collagen type X gene (RT-PCR, normalized to 18S rRNA) vs control group” value in the assay with collagen type X gene [6] (Day 3 after 48 hr treatment with 15 μg/ml Aza-C), in the assay with collagen type X gene [6] (setting [8]) and with collagen type X gene [6] (setting [9]) was “significantly increased” each time. Besides, the “mRNA expression of ALP gene (RT-PCR, normalized to 18S rRNA) vs control group” value in assay [7] (setting [8]) and in assay [7] (setting [9]) was “significantly increased” each time. Moreover, the “Percentage change of mRNA expression of ALP by quantitative real-time PCR” value was 175.8 ± 13.5% in the assay with ALP gene (setting [10]), 31,900.0 ± 4.7 % in the assay on ALP gene (setting [12]) and 735.6 ± 3.2 % in the assay with ALP gene (setting [11]).
